In patent US11572366B2, “Heterocyclic compounds as immunomodulators” (Incyte Corporation, priority 2015, dated 2023):

molecular target: PD-1/PD-L1 protein/protein interaction (Homo sapiens (Human), UniProt Q9NZQ7); experiment: PD-1/PD-L1 Homogeneous Time-Resolved Fluorescence (HTRF) binding assay; settings: recombinant human PD-L1 (19-238) His-tag 10 nM, human PD-1 (25-167) Fc tag 3 nM, 25° C., PBS pH 7.4
Experimental: Example A. PD-1/PD-L Homogeneous Time-Resolved Fluorescence (HTRF) Binding Assay
The assays were conducted in a standard black 384-well polystyrene plate with a final volume of 20 μL. Inhibitors were first serially diluted in DMSO and then added to the plate wells before the addition of other reaction components. The final concentration of DMSO in the assay was 1%. The assays were carried out at 25° C. in the PBS buffer (pH 7.4) with 0.05% Tween-20 and 0.1% BSA. Recombinant human PD-L1 protein (19-238) with a His-tag at the C-terminus was purchased from AcroBiosystems (PD1-H5229). Recombinant human PD-1 protein (25-167) with Fc tag at the C-terminus was also purchased from AcroBiosystems (PD1-H5257). PD-L1 and PD-1 proteins were diluted in the assay buffer and 10 μL was added to the plate well. Plates were centrifuged and proteins were preincubated with inhibitors for 40 minutes. The incubation was followed by the addition of 10 μL of HTRF detection buffer supplemented with Europium cryptate-labeled anti-human IgG (PerkinElmer-AD0212) specific for Fe and anti-His antibody conjugated to SureLight®-Allophycocyanin (APC, PerkinElmer-AD0059H). After centrifugation, the plate was incubated at 25° C. for 60 min. before reading on a PHERAstar FS plate reader (665 nm/620 nm ratio). Final concentrations in the assay were—3 nM PD1, 10 nM PD-L1, 1 nM europium anti-human IgG and 20 nM anti-His-Allophycocyanin.IC50 determination was performed by fitting the curve of percent control activity versus the log of the inhibitor concentration using the GraphPad Prism 5.0 software.

PD-1/PD-L1 protein/protein interaction, sequence (Q9NZQ7 19-238): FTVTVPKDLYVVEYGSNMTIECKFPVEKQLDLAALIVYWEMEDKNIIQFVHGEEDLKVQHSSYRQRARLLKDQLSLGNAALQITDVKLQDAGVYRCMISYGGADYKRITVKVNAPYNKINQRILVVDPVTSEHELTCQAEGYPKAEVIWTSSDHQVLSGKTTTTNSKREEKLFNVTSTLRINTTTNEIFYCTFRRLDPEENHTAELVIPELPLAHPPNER

SMILES | IC50 [µM]
Cc1c(-c2ccccc2)cccc1-c1cc2nc(CNCCO)cc(C)c2o1 [Example 3, 2-({[7-methyl-2-(2-methylbiphenyl-3-yl)furo[3,2-b]pyridin-5-yl]methyl}amino)ethanol] | 0.01 to 0.1
Cc1c(-c2ccccc2)cccc1-c1nc2cc(CNCCO)c(OCCCC#N)c(C)c2o1 [Example 34, 4-{[5-{[(2-hydroxyethyl)amino]methyl}-7-methyl-2-(2-methylbiphenyl-3-yl)-1,3-benzoxazol-6-yl]oxy}butanenitrile] | 0.01 to 0.1
Cc1c(-c2ccccc2)cccc1-c1cc2nc(CN3CCCC[C@H]3C(=O)O)cnc2o1 [Example 25, (2S)-1-{[6-(2-methylbiphenyl-3-yl)furo[2,3-b]pyrazin-2-yl]methyl}piperidine-2-carboxylic Acid] | 0.1 to 1
COc1cc2oc(-c3cccc(-c4ccccc4)c3C)nc2cc1CNCCO [Example 31, 2-({[6-methoxy-2-(2-methylbiphenyl-3-yl)-1,3-benzoxazol-5-yl]methyl}amino)ethanol] | ≤ 0.01
Cc1c(-c2ccccc2)cccc1-c1nc2cc(CNCCO)c(OCc3ccccn3)cc2o1 [Example 30, 2-({[2-(2-methylbiphenyl-3-yl)-6-(pyridin-2-ylmethoxy)-1,3-benzoxazol-5-yl]methyl}amino)ethanol] | ≤ 0.01
Cc1c(-c2ccccc2)cccc1-c1nc2c(C)cc(CN3CCCC[C@H]3C(=O)O)cc2s1 [Example 22, (2S)-1-{[4-methyl-2-(2-methylbiphenyl-3-yl)-1,3-benzothiazol-6-yl]methyl}piperidine-2-carboxylic Acid] | 0.01 to 0.1
Cc1c(-c2ccc3c(c2)OCCO3)cccc1-c1nc2cc(CN3CCCC[C@H]3C(=O)O)cc(C)c2o1 [Example 15, (2S)-1-({2-[3-(2,3-dihydro-1,4-benzodioxin-6-yl)-2-methylphenyl]-7-methyl-1,3-benzoxazol-5-yl}methyl)piperidine-2-carboxylic Acid] | 0.01 to 0.1
